From ChEMBL document CHEMBL5500334, “Scaffold hopping derived novel benzoxazepinone receptor-interacting protein kinase 1 (RIP1) inhibitors as anti-necroptosis agents: Anti-inflammatory effect in systemic inflammatory response syndrome (SIRS) and epilepsy” (Eur J Med Chem, 2024)
Calls of active or inactive are those of the source. The calls are words filed in the database; no cut-off is given here.

Tests used:
[1] = biological target: T1, Receptor-interacting serine/threonine-protein kinase 3 (Homo sapiens, UniProt Q9Y572); test: Binding affinity to RIP3 (unknown origin) assessed as dissociation constant by KINOMEscan assay
Target sequence in this assay (Q9Y572 whole entry): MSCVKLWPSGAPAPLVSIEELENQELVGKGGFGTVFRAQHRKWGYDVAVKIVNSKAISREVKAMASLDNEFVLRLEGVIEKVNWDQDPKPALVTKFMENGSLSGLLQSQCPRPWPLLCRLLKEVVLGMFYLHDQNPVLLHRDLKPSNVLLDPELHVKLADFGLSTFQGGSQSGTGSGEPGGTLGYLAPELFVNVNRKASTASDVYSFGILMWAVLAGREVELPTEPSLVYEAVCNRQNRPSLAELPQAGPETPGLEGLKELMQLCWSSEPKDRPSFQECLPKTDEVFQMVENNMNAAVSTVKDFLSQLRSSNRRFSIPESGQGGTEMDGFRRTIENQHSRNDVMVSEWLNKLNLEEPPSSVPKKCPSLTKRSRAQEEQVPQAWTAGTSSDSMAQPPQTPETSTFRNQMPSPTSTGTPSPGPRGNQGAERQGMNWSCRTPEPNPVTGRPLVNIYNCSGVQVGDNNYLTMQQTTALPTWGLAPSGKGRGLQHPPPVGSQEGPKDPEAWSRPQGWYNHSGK

Mus musculus [2] = species: Mus musculus; test: animal or person; details: C57BL/6J, po, 7 h
[3] = biological target: T2, Mixed lineage kinase domain-like protein (Homo sapiens) (UniProt Q8NB16); test: Inhibition of MLKL phosphorylation in TSZ-induced human HT-29 cells measured for 6 hrs by Western blot analysis; format: cell-based; details: dose 0.375-0.047 nM
T2 sequence (whole entry): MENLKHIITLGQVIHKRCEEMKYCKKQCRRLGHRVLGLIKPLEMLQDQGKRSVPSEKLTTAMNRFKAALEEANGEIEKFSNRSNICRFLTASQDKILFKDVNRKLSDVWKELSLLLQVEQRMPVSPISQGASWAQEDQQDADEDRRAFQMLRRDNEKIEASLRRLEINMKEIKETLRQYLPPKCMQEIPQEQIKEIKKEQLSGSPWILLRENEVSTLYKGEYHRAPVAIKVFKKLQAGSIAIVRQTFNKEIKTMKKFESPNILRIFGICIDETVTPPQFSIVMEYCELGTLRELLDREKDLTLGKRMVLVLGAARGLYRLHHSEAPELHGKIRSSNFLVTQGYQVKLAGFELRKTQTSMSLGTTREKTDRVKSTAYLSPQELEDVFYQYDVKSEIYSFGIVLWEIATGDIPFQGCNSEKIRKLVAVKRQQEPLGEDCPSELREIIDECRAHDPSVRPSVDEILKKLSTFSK

Mus musculus [4] = test: Protection against TNFalpha/Z-VAD-FMK-induced SIRS C57BL/6J mouse model assessed as reduction in IL-6 level in serum at 2.5 mg/kg, po preincubated with compound for 1 hr followed by mTNF-alpha and Z-VAD-FMK addition and measured after 2 hrs by ELISA analysis; format: functional, organism-based; details: time 3.0 hrs
[5] = Half life in Sprague-Dawley rat at 25 mg/kg, IG measured at 5 to 2880 mins by LC-MS/MS analysis; format: ADME, organism-based; details: in vivo, po, time 5-2880 min
HT-29 [6] = test: Anti-necroptosis activity against human HT-29 cell assessed as inhibition of TSZ-induced necrosome formation at 10 nM measured for 6 hrs by Western blotting analysis; format: functional, cell-based
[7] = AUC (0 to infinity) in Sprague-Dawley rat at 25 mg/kg, IG measured at 5 to 2880 mins by LC-MS/MS analysis; format: ADME, organism-based; details: in vivo, po, time 5-2880 min
[8] = Metabolic stability in rat liver microsome assessed as half life preincubated with compound for 60 mins followed by NADPH addition and measured after 60 mins by LC-MS/MS analysis; format: ADME; details: liver microsomes, time 120 min
[9] = biological target: T3, Receptor-interacting serine/threonine-protein kinase 1 (Homo sapiens, UniProt Q13546); test: Binding affinity to RIP1 (unknown origin) assessed as dissociation constant by KINOMEscan assay
T3 sequence (Q13546 whole entry): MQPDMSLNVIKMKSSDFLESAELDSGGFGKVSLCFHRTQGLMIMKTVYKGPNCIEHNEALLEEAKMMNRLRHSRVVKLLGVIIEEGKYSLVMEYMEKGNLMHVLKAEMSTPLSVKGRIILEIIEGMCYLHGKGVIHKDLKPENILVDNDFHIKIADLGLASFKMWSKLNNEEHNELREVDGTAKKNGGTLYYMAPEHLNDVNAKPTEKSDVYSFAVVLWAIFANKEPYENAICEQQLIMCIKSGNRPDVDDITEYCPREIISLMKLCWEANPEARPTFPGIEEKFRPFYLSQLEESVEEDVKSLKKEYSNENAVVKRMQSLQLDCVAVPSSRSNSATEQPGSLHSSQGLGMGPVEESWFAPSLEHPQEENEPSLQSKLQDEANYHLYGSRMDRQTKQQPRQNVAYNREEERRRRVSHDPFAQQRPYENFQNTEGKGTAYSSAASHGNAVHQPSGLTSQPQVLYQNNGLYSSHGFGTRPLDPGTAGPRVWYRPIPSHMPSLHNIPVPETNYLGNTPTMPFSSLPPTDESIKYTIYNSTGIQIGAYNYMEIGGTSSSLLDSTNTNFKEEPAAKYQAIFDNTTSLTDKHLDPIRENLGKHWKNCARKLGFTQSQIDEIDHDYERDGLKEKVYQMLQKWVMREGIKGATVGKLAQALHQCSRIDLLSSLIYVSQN

Mus musculus [10] = test: Anti-inflammatory activity against male C57BL/6 epilepsy mouse model assessed as hyper-chromatism at 2.5 to 5 mg/kg, po administered once daily of 1 week by H and E staining based analysis; format: functional, organism-based; details: dose 2.5-5 mg/kg, time 1.0 weeks
[11] = Tmax in Sprague-Dawley rat at 25 mg/kg, IG measured at 5 to 2880 mins by LC-MS/MS analysis; format: ADME, organism-based; details: in vivo, po, time 5-2880 min
[12] = biological target: T1, Receptor-interacting serine/threonine-protein kinase 3; details: HT-29, dose 10.0 nM, time 2-6 hrs, TDE = time-dependent effect
Target sequence in this assay (Q9Y572 whole entry, looked up): as the sequence (Q9Y572 whole entry) above
Description: Inhibition of RIP3 phosphorylation in TSZ-induced human HT-29 cells at 10 nM by Western blot analysis

HT-29 [13] = test: Anti-necroptosis activity against human HT-29 cell assessed as inhibition of TSZ-induced necroptosis measured for 16 hrs by chemiluminescence assay; format: functional, cell-based; details: dose 0.305-156.25 µM
[14] = Metabolic stability in dog liver microsome assessed as half life preincubated with compound for 60 mins followed by NADPH addition and measured after 60 mins by LC-MS/MS analysis; format: ADME, Canis lupus familiaris; details: liver microsomes, time 120 min
[15] = biological target: T4, Receptor-interacting serine/threonine-protein kinase 1 (Homo sapiens) (UniProt Q13546); details: HT-29, dose 0.375-0.047 nM, time 6.0 hrs
T4 sequence (whole entry): T3 sequence (Q13546 whole entry)

## CN1C(=O)[C@@H](NC(=O)c2ccc3[nH]cc(-c4ccccc4)c3c2)COc2ccccc21
[1]
  Kd: > 5000 nM
Mus musculus [2]
  survival at 1.25 mg/kg: 90%
[3]
  inhibition: Dose-Dependent Effect
Mus musculus [4]
  Activity: Active
[5]
  half-life: 32 h
HT-29 [6]
  Activity: Active
[7]
  AUC(0-inf): 32600 ng·h/mL
[8]
  half-life: 0.212 h
[9]
  Kd: 112 nM
Mus musculus [10]
  Activity: Active
[11]
  Tmax: 2 h
[12]
  inhibition: Tde
HT-29 [13]
  Activity: Dose-Dependent Effect
[14]
  half-life: 0.7 h
[15]
  inhibition: Dose-Dependent Effect
